Test systems include OVCAR-4; A498; SF-295; OVCAR-8; OVCAR-3; EKVX; RXF 393; SN12C; SK-MEL-2; NCI-H522; HCT-15; HT-29; UACC-62; SF-268; LOX IMVI; SK-MEL-5; COLO 205; HCT-116; NCI-H226; NCI-H23.
Assay in all cases: NCI-60 cell line screen, 48 h

Structures are written as SMILES.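 Following 48 hours of exposure in 96-well plates, responses at five concentrations were used to interpolate endpoints linearly. GI50: concentration for 50% inhibition of growth.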 Calls of active or inactive are those of the source. No stated cut-off is given here; in the data, active = GI50 up to about 1.1 µM and inactive = higher.

Consider `CON(C)C(C#N)=C(C#N)C#N`, for which the GI50 with OVCAR-4, in the experiment with A498, with SF-295, in the experiment with OVCAR-8, with OVCAR-3 and in the experiment on EKVX was > 10 µM (inactive) in each case. The GI50 with RXF 393 was > 10 µM (inactive); with SN12C, > 10 µM (inactive); with SK-MEL-2 it was > 10 µM (inactive); in the experiment with NCI-H522, > 10 µM (inactive); in the experiment with HCT-15, over 10 µM; with HT-29, > 10 µM (inactive). The GI50 with UACC-62, in the experiment with SF-268, with LOX IMVI, in the experiment on SK-MEL-5, with COLO 205 and in the experiment on HCT-116 was > 10 µM (inactive) in each case. For the same compound, the GI50 was 2.86 µM (inactive) in the experiment on NCI-H226 and > 10 µM (inactive) in the experiment on NCI-H23.
For `CC1NC(=O)C(C)C(c2ccccc2)N(N=O)C1c1ccccc1` (stereo not given), the GI50 in the experiment with OVCAR-4 is 31.3 µM (inactive); in the experiment on A498, 12.8 µM (inactive); in the experiment with SF-295 it was > 34.7 µM (inactive); with OVCAR-8 it was > 100 µM (inactive); with OVCAR-3, > 52.5 µM (inactive); in the experiment with EKVX, > 83 µM (inactive). In addition, the GI50 is 60.7 µM (inactive) in the experiment with RXF 393; > 100 µM (inactive) in the experiment on SN12C; > 100 µM (inactive) in the experiment with SK-MEL-2; 88.9 µM (inactive) in the experiment on NCI-H522; 55.2 µM with HCT-15; 29.2 µM (inactive) in the experiment on HT-29. In addition, the GI50 in the experiment with UACC-62 was > 88.5 µM (inactive); in the experiment on SF-268 it was > 100 µM (inactive); with LOX IMVI, > 69.5 µM (inactive); with SK-MEL-5, > 71.3 µM (inactive); in the experiment with COLO 205 it was > 63.4 µM (inactive); in the experiment with HCT-116, > 59 µM (inactive). Also, the GI50 with NCI-H226 and in the experiment with NCI-H23 was > 100 µM (inactive) each time.
As for `CC1=CC(C)C(C)N(CC2=NCCN2)c2ccccc21` (stereo not given), the GI50 was > 100 µM (inactive) in the experiment with OVCAR-4; > 59.8 µM (inactive) in the experiment with A498; 67.3 µM (inactive) with SF-295; > 80.9 µM (inactive) in the experiment with OVCAR-8; 56.8 µM (inactive) in the experiment with OVCAR-3; > 100 µM (inactive) in the experiment on EKVX. The GI50 is 27.6 µM (inactive) in the experiment on RXF 393; > 100 µM (inactive) with SN12C; 44.8 µM (inactive) in the experiment on SK-MEL-2; 29.2 µM (inactive) with NCI-H522; over 100 µM with HCT-15; 18.7 µM (inactive) in the experiment on HT-29. For the same compound, the GI50 in the experiment with UACC-62 was 49.3 µM (inactive); in the experiment with SF-268, 72.8 µM (inactive); in the experiment with LOX IMVI, 38.1 µM (inactive); with SK-MEL-5, 20.1 µM (inactive); with COLO 205 it was 16.9 µM (inactive); with HCT-116 it was 40 µM (inactive). Besides, the GI50 with NCI-H226 was 68.1 µM (inactive); in the experiment on NCI-H23, > 100 µM (inactive).
With `ClCc1ccc2ccc3ccc(CCl)nc3c2n1`, the GI50 was 5.65 µM (inactive) with OVCAR-4; 10.6 µM (inactive) in the experiment on A498; 2.31 µM (inactive) in the experiment on SF-295; 3.36 µM (inactive) in the experiment on OVCAR-8; 1.94 µM (inactive) with OVCAR-3; 15.6 µM (inactive) in the experiment on EKVX. Also, the GI50 in the experiment on RXF 393 is 1.72 µM (inactive); with SN12C, 2.36 µM (inactive); with SK-MEL-2, 1.77 µM (inactive); in the experiment on NCI-H522, 1.76 µM (inactive); with HCT-15 it was 1.78 µM; with HT-29 it was 2.17 µM (inactive). Also, the GI50 with UACC-62 is 1.34 µM (inactive); with SF-268 it was 4.19 µM (inactive); in the experiment on LOX IMVI, 1.56 µM (inactive); in the experiment on SK-MEL-5 it was 1.4 µM (inactive); with COLO 205, 1.71 µM (inactive); with HCT-116, 1.69 µM (inactive). Moreover, the GI50 was 2.28 µM (inactive) in the experiment with NCI-H226 and 2.9 µM (inactive) in the experiment on NCI-H23.
On to `C=C1C(=O)OC2CC1CCC1(C)OC1CCC(C)=CCCC2(C)O` (stereo not given), for which the GI50 with OVCAR-4 was 4.78 µM (inactive); in the experiment with A498, 2.13 µM (inactive); in the experiment with SF-295 it was 16.8 µM (inactive); with OVCAR-8, 2.33 µM (inactive); in the experiment with OVCAR-3, 3.33 µM (inactive); in the experiment on EKVX, 6.87 µM (inactive). For the same compound, the GI50 was 1.2 µM (inactive) in the experiment on RXF 393; 5.08 µM (inactive) in the experiment on SN12C; 6.12 µM (inactive) with SK-MEL-2; 1.06 µM (active) in the experiment with NCI-H522; 1.85 µM in the experiment on HCT-15; 4.06 µM (inactive) in the experiment with HT-29. Moreover, the GI50 was 3.4 µM (inactive) in the experiment with UACC-62; 5.36 µM (inactive) in the experiment on SF-268; 2.24 µM (inactive) in the experiment with LOX IMVI; 4 µM (inactive) with SK-MEL-5; 1.89 µM (inactive) in the experiment on COLO 205; 2.72 µM (inactive) with HCT-116. For the same compound, the figures for the GI50 in the experiment on NCI-H226 and with NCI-H23 were 3.61 µM (inactive) and 1.79 µM (inactive), respectively.
With `CC1=C2C3OC(=O)C(C)C3CCC2(C)C=C/C1=N\c1ccccc1` (stereo not given), the GI50 with OVCAR-4, in the experiment on A498, in the experiment with SF-295, in the experiment with OVCAR-8, in the experiment with OVCAR-3 and with EKVX was > 100 µM (inactive) in each case. Moreover, the GI50 in the experiment with RXF 393 was > 100 µM (inactive); in the experiment on SN12C, > 100 µM (inactive); with SK-MEL-2 it was > 100 µM (inactive); with NCI-H522, > 100 µM (inactive); in the experiment on HCT-15, over 100 µM; in the experiment on HT-29, > 100 µM (inactive). Further, the GI50 with UACC-62, with SF-268, in the experiment with LOX IMVI, in the experiment on SK-MEL-5, in the experiment with COLO 205 and in the experiment with HCT-116 was > 100 µM (inactive) in each case. The GI50 with NCI-H226 and in the experiment with NCI-H23 was > 100 µM (inactive) in each case.
As for `CN(C)C(=O)NCCN1CCCCCc2ccccc21`, the GI50 in the experiment with OVCAR-4 was 78 µM (inactive); with A498 it was > 100 µM (inactive); in the experiment on SF-295, > 100 µM (inactive); with OVCAR-8 it was > 100 µM (inactive); in the experiment with OVCAR-3 it was 37 µM (inactive); with EKVX it was > 100 µM (inactive). The GI50 was > 100 µM (inactive) in the experiment on RXF 393; > 100 µM (inactive) in the experiment on SN12C; 89.7 µM (inactive) with SK-MEL-2; > 100 µM (inactive) in the experiment on NCI-H522; over 100 µM in the experiment with HCT-15; > 100 µM (inactive) in the experiment on HT-29. Besides, the GI50 in the experiment on UACC-62 is > 100 µM (inactive); in the experiment on SF-268 it was > 100 µM (inactive); in the experiment with LOX IMVI, > 100 µM (inactive); in the experiment with SK-MEL-5, 24.3 µM (inactive); in the experiment on COLO 205, > 100 µM (inactive); with HCT-116, > 100 µM (inactive). For the same compound, the GI50 is 49.7 µM (inactive) with NCI-H226 and 76.4 µM (inactive) in the experiment on NCI-H23.
Turning to `CC[C@H](O)[C@H](C)C=C1SCCCS1`, the GI50 with OVCAR-4, in the experiment with A498, in the experiment on SF-295, in the experiment on OVCAR-8, in the experiment with OVCAR-3 and with EKVX was > 100 µM (inactive) throughout. Further, the GI50 was > 100 µM (inactive) in the experiment with RXF 393; > 100 µM (inactive) in the experiment on SN12C; > 100 µM (inactive) in the experiment on SK-MEL-2; > 100 µM (inactive) in the experiment with NCI-H522; over 100 µM in the experiment on HCT-15; > 100 µM (inactive) in the experiment with HT-29. Besides, the GI50 with UACC-62, with SF-268, in the experiment with LOX IMVI, in the experiment on SK-MEL-5, in the experiment with COLO 205 and in the experiment on HCT-116 was > 100 µM (inactive) in each case. The GI50 in the experiment on NCI-H226 and in the experiment with NCI-H23 was > 100 µM (inactive) in each case.
For the compound `CCOC(=O)c1cc(Br)c(-c2cc(C)no2)[nH]1`, the GI50 with OVCAR-4 was 23.3 µM (inactive); in the experiment with A498, 20.2 µM (inactive); in the experiment on SF-295, 31.1 µM (inactive); in the experiment with OVCAR-8, 35.8 µM (inactive); in the experiment on OVCAR-3, 21.3 µM (inactive); in the experiment with EKVX, 34.8 µM (inactive). In addition, the GI50 in the experiment on RXF 393 was 31 µM (inactive); in the experiment with SN12C, 32 µM (inactive); in the experiment with SK-MEL-2, 34.4 µM (inactive); in the experiment on NCI-H522, 20.7 µM (inactive); with HCT-15, 25 µM; in the experiment on HT-29 it was 41.6 µM (inactive). Further, the GI50 with UACC-62 is 35.2 µM (inactive); in the experiment with SF-268 it was 31.6 µM (inactive); in the experiment on LOX IMVI, 31.3 µM (inactive); in the experiment on SK-MEL-5 it was 21.7 µM (inactive); with COLO 205, 19.8 µM (inactive); with HCT-116, 27.3 µM (inactive). Also, the GI50 with NCI-H226 is 31 µM (inactive); in the experiment on NCI-H23, 24.4 µM (inactive).
As for `O=C1C=CC(=O)c2c(Cl)ccc(O)c21`, the GI50 is 18.5 µM (inactive) with OVCAR-4; > 87.9 µM (inactive) with A498; > 42.3 µM (inactive) in the experiment with SF-295; 20.4 µM (inactive) with OVCAR-8; 15.6 µM (inactive) in the experiment on OVCAR-3; 21.8 µM (inactive) in the experiment with EKVX. The GI50 was 16 µM (inactive) in the experiment on RXF 393; 21.1 µM (inactive) in the experiment on SN12C; 37.8 µM (inactive) in the experiment on SK-MEL-2; 13.9 µM (inactive) in the experiment on NCI-H522; 17.8 µM in the experiment with HCT-15; 21.6 µM (inactive) in the experiment with HT-29. Moreover, the GI50 is 16.8 µM (inactive) with UACC-62; 18.4 µM (inactive) with SF-268; 18.2 µM (inactive) in the experiment with LOX IMVI; 17.7 µM (inactive) in the experiment with SK-MEL-5; 13.1 µM (inactive) with COLO 205; 9.79 µM (inactive) in the experiment on HCT-116. Moreover, the GI50 with NCI-H226 is > 91.2 µM (inactive); in the experiment with NCI-H23, 12.4 µM (inactive).

The record behind these values is ChEMBL document CHEMBL1201862, “PubChem BioAssay data set” (2004).
